For 37 molecules, herbicidal activity pre-emergence and herbicidal activity post-emergence results are on record in patent US20030171218A1, “Substituted 3-heteroaryl(amino- or oxy)pyrrolidin-2-ones, their preparation and use as herbicides or plant growth regulators” (priority 2001, published 2003).

The subject of experiment [1] is weed plants such as Digitaria sanguinalis, Echinochloa crus-galli, Setaria faberi, Setaria viridis, Sorghum halepense, Abutilon theophrasti, Amaranthum …. The experiment in a line: Pre-emergence effect on weeds (greenhouse pot test). In kind it is in vivo, monocotyledonous and dicotyledonous weed plants. The settings on record: application rate of 1 kg or less of active substance per hectare; scored visually after 3 to 4 weeks by comparison with untreated controls. The source says: Seeds or rhizome pieces of monocotyledonous and dicotyledonous weed plants are placed in sandy loam soil in plastic pots and covered with soil. The compounds according to the invention which are formulated in the form of wettable powders or emulsion concentrates are then applied to the surface of the soil cover in the form of aqueous suspensions or emulsions at an application rate of 600 to 800 l of water/ha (converted), in various dosages.
After the treatment, the pots are placed in a greenhouse and kept under good growth conditions for the weeds. After the test plants have emerged, the damage to the plants or the negative effect on the emergence is scored visually after a test period of 3 to 4 weeks by comparison with untreated controls. As shown by the test results, compounds according to the invention have good herbicidal pre-emergence activity against a broad spectrum of weed grasses and broad-leafed weeds.

The test system of experiment [2] is harmful plants such as Digitaria sanguinalis, Echinochloa crus-galli, Setaria faberi, Setaria viridis, Sorghum halepense, Abutilon theophrasti, Amaranthum …. In words: Post-emergence effect on weeds (greenhouse pot test). The class given is in vivo, monocotyledonous and dicotyledonous weeds. The settings on record: application rate of 1 kg and less of active substance per hectare; treated at three-leaf stage; scored visually after about 3 to 4 weeks by comparison with untreated controls. The procedure:
Seeds or rhizome pieces of monocotyledonous and dicotyledonous weeds are placed in sandy loam soil in plastic pots, covered with soil and grown in a greenhouse under good growth conditions. Three weeks after sowing, the test plants are treated at the three-leaf stage. The compounds according to the invention which were formulated as wettable powders or emulsion concentrates are sprayed, at various dosages, onto the green parts of the plants at an application rate of 600 to 800 l of water/ha (converted). After the test plants have remained in the greenhouse for about 3 to 4 weeks under optimum growth conditions, the effect of the preparations is scored visually by comparison with untreated controls. The agents according to the invention also have good herbicidal activity post-emergence against a broad spectrum of economically important weed grasses and broad-leafed weeds.

Take `CC(F)c1nc(N)nc(NC2CCN(c3cccc(F)c3)C2=O)n1` (centres unmarked) [Example A10]: the herbicidal activity pre-emergence entry in experiment [1] is “very good herbicidal activity”. For the same molecule, the herbicidal activity post-emergence entry in experiment [2] was “very good herbicidal activity”.
With `CC(F)c1nc(N)nc(NC2CCN(c3cccc(OC(F)(F)F)c3)C2)n1` (centres unmarked) [Example E23], the herbicidal activity pre-emergence entry in experiment [1] is reported as “very good herbicidal activity”. For the same molecule, the herbicidal activity post-emergence entry in experiment [2] is “very good herbicidal activity”.
`CC(C)(F)c1nc(N)nc(OC2CCN(c3cccc(OC(F)(F)F)c3)C2=O)n1` (centres unmarked) [Example A60]: the herbicidal activity pre-emergence entry in experiment [1] was “very good herbicidal activity”. Further, the herbicidal activity post-emergence result in experiment [2] is on record as “very good herbicidal activity”.
Consider `CC(F)c1nc(N)nc(N(C)C2CCN(c3cccc(C(F)(F)F)c3)C2)n1` (centres unmarked) [Example E57], for which, in experiment [1], the herbicidal activity pre-emergence result is given as “very good herbicidal activity”. In addition, the herbicidal activity post-emergence result in experiment [2] is “very good herbicidal activity”.
As for `CC(F)c1nc(N)nc(OC2CCN(c3cccc(OC(F)(F)F)c3)C2=O)n1` (centres unmarked) [Example A42], in experiment [1], the herbicidal activity pre-emergence entry is recorded as “very good herbicidal activity”. In experiment [2], the herbicidal activity post-emergence result is on record as “very good herbicidal activity”.
As for `Cc1cc(C)cc(N2CCC(N(C)c3nc(N)nc(C(C)(C)F)n3)C2=O)c1` (centres unmarked) [Example A78], the herbicidal activity pre-emergence result in experiment [1] is “very good herbicidal activity”. For the same molecule, the herbicidal activity post-emergence result in experiment [2] is given as “very good herbicidal activity”.
For `CC(F)c1nc(N)nc(OC2CCN(C(C)(C)c3cccc(Cl)c3)C2=O)n1` (centres unmarked) [Example F1], the herbicidal activity pre-emergence entry in experiment [1] is on record as “very good herbicidal activity”. In experiment [2], the herbicidal activity post-emergence result is reported as “very good herbicidal activity”.
Consider `CN(c1nc(N)nc(C(C)(C)F)n1)C1CCN(c2cccc(C(F)(F)F)c2)C1` (centres unmarked) [Example E48], for which the herbicidal activity pre-emergence entry in experiment [1] is reported as “very good herbicidal activity”. Further, the herbicidal activity post-emergence result in experiment [2] is “very good herbicidal activity”.
For the molecule `Cc1cc(N2CCC(N(C)c3nc(N)nc(C(C)F)n3)C2=O)ccc1F` (centres unmarked) [Example A67], the herbicidal activity pre-emergence entry in experiment [1] is on record as “very good herbicidal activity”. The herbicidal activity post-emergence result in experiment [2] was “very good herbicidal activity”.
`Cc1nc(N)nc(NC2CCN(c3cccc(OC(F)(F)F)c3)C2=O)n1` (centres unmarked) [Example A8]: the herbicidal activity pre-emergence entry in experiment [1] is “very good herbicidal activity”. In experiment [2], the herbicidal activity post-emergence result is listed as “very good herbicidal activity”.
On to `CC(C)(F)c1nc(N)nc(NC2CCN(c3cccc(F)c3)C2)n1` (centres unmarked) [Example E13], for which, in experiment [1], the herbicidal activity pre-emergence entry is “very good herbicidal activity”. Also, the herbicidal activity post-emergence entry in experiment [2] is listed as “very good herbicidal activity”.
Consider `Cc1cccc(N2CCC(N(C)c3nc(N)nc(C(C)(C)F)n3)C2=O)c1` (centres unmarked) [Example A84], for which the herbicidal activity pre-emergence entry in experiment [1] is recorded as “very good herbicidal activity”. Besides, the herbicidal activity post-emergence result in experiment [2] is listed as “very good herbicidal activity”.
`CC(F)c1nc(N)nc(N(C)C2CCN(c3cccc(F)c3)C2=O)n1` (centres unmarked) [Example A69]: the herbicidal activity pre-emergence entry in experiment [1] is “very good herbicidal activity”. In experiment [2], the herbicidal activity post-emergence result is “very good herbicidal activity”.
As for `Cc1cc(C)cc(N2CCC(Oc3nc(N)nc(C(C)(C)F)n3)C2=O)c1` (centres unmarked) [Example A57], the herbicidal activity pre-emergence entry in experiment [1] is recorded as “very good herbicidal activity”. Further, the herbicidal activity post-emergence entry in experiment [2] is “very good herbicidal activity”.
As to `CC(C)(F)c1nc(N)nc(OC2CCN(C(C)(C)c3cccc(Cl)c3)C2=O)n1` (centres unmarked) [Example F3], the herbicidal activity pre-emergence result in experiment [1] is “very good herbicidal activity”. Moreover, the herbicidal activity post-emergence entry in experiment [2] is on record as “very good herbicidal activity”.
On to `CN(c1nc(N)nc(C(C)(C)F)n1)C1CCN(c2cccc(Cl)c2)C1` (centres unmarked) [Example E55], for which the herbicidal activity pre-emergence entry in experiment [1] is reported as “very good herbicidal activity”. In experiment [2], the herbicidal activity post-emergence entry was “very good herbicidal activity”.
On to `Cc1cc(C)cc(N2CCC(N(C)c3nc(N)nc(C(C)C)n3)C2=O)c1` (centres unmarked) [Example A71], for which the herbicidal activity pre-emergence result in experiment [1] is on record as “very good herbicidal activity”. The herbicidal activity post-emergence entry in experiment [2] is “very good herbicidal activity”.
On to `CC(C)c1nc(N)nc(OC2CCN(c3cccc(OC(F)(F)F)c3)C2=O)n1` (centres unmarked) [Example A51], for which, in experiment [1], the herbicidal activity pre-emergence result is listed as “very good herbicidal activity”. In addition, in experiment [2], the herbicidal activity post-emergence entry is on record as “very good herbicidal activity”.
Regarding `COc1cccc(N2CCC(Nc3nc(N)nc(C(C)F)n3)C2=O)c1` (centres unmarked) [Example A16], the herbicidal activity pre-emergence entry in experiment [1] was “very good herbicidal activity”. Moreover, the herbicidal activity post-emergence entry in experiment [2] is “very good herbicidal activity”.
On to `CC(C)c1nc(N)nc(NC2CCN(c3cccc(F)c3)C2=O)n1` (centres unmarked) [Example A19], for which the herbicidal activity pre-emergence entry in experiment [1] is on record as “very good herbicidal activity”. Also, in experiment [2], the herbicidal activity post-emergence result is “very good herbicidal activity”.
Consider `CC(C)c1nc(N)nc(N(C)C2CCN(c3cccc(Cl)c3)C2)n1` (centres unmarked) [Example E73], for which the herbicidal activity pre-emergence entry in experiment [1] was “very good herbicidal activity”. Moreover, the herbicidal activity post-emergence entry in experiment [2] is “very good herbicidal activity”.
Consider `CC(F)c1nc(N)nc(N(C)C2CCN(c3cccc(Cl)c3)C2=O)n1` (centres unmarked) [Example A66], for which, in experiment [1], the herbicidal activity pre-emergence entry is reported as “very good herbicidal activity”. For the same molecule, the herbicidal activity post-emergence result in experiment [2] is reported as “very good herbicidal activity”.
Consider `CC(C)(F)c1nc(N)nc(OC2CCN(c3cccc(F)c3)C2=O)n1` (centres unmarked) [Example A62], for which the herbicidal activity pre-emergence result in experiment [1] is on record as “very good herbicidal activity”. The herbicidal activity post-emergence result in experiment [2] is “very good herbicidal activity”.
As to `Cc1cc(C)cc(N2CCC(N(C)c3nc(N)nc(C(C)F)n3)C2)c1` (centres unmarked) [Example E59], the herbicidal activity pre-emergence result in experiment [1] is on record as “very good herbicidal activity”. The herbicidal activity post-emergence result in experiment [2] is listed as “very good herbicidal activity”.
On to `CC(C)c1nc(N)nc(N(C)C2CCN(c3cccc(C(F)(F)F)c3)C2=O)n1` (centres unmarked) [Example A70], for which, in experiment [1], the herbicidal activity pre-emergence entry is “very good herbicidal activity”. The herbicidal activity post-emergence result in experiment [2] is on record as “very good herbicidal activity”.
As for `CC(C)(F)c1nc(N)nc(NC2CCN(c3cccc(Cl)c3)C2=O)n1` (centres unmarked) [Example A36], the herbicidal activity pre-emergence entry in experiment [1] is “very good herbicidal activity”. Further, in experiment [2], the herbicidal activity post-emergence entry is reported as “very good herbicidal activity”.
With `CC(F)c1nc(N)nc(NC2CCN(c3cccc(F)c3)C2)n1` (centres unmarked) [Example E14], in experiment [1], the herbicidal activity pre-emergence result is listed as “very good herbicidal activity”. Further, the herbicidal activity post-emergence entry in experiment [2] is listed as “very good herbicidal activity”.
Take `CC(F)c1nc(N)nc(N(C)C2CCN(c3cccc(OC(F)(F)F)c3)C2)n1` (centres unmarked) [Example E58]: in experiment [1], the herbicidal activity pre-emergence entry is “very good herbicidal activity”. In addition, in experiment [2], the herbicidal activity post-emergence entry is on record as “very good herbicidal activity”.
For the molecule `COc1cccc(N2CCC(N(C)c3nc(N)nc(C(C)(C)F)n3)C2=O)c1` (centres unmarked) [Example A77], in experiment [1], the herbicidal activity pre-emergence result was “very good herbicidal activity”. In experiment [2], the herbicidal activity post-emergence entry was “very good herbicidal activity”.
As for `CN(c1nc(N)nc(C(C)(C)F)n1)C1CCN(c2cccc(Cl)c2)C1=O` (centres unmarked) [Example A79], the herbicidal activity pre-emergence result in experiment [1] is recorded as “very good herbicidal activity”. The herbicidal activity post-emergence result in experiment [2] is “very good herbicidal activity”.
For `Cc1cc(C)cc(N2CCC(Oc3nc(N)nc(C(C)C)n3)C2=O)c1` (centres unmarked) [Example A48], the herbicidal activity pre-emergence result in experiment [1] is listed as “very good herbicidal activity”. Further, in experiment [2], the herbicidal activity post-emergence result is “very good herbicidal activity”.
As for `CC(C)(F)c1nc(N)nc(NC2CCN(c3cccc(F)c3)C2=O)n1` (centres unmarked) [Example A28], the herbicidal activity pre-emergence entry in experiment [1] is reported as “very good herbicidal activity”. In addition, the herbicidal activity post-emergence result in experiment [2] is “very good herbicidal activity”.
On to `Cc1cc(C)cc(N2CCC(Nc3nc(N)nc(C(C)F)n3)C2=O)c1` (centres unmarked) [Example A14], for which the herbicidal activity pre-emergence entry in experiment [1] is listed as “very good herbicidal activity”. In addition, the herbicidal activity post-emergence entry in experiment [2] was “very good herbicidal activity”.
`CC(C)c1nc(N)nc(NC2CCN(c3cccc(C(F)(F)F)c3)C2)n1` (centres unmarked) [Example E21]: in experiment [1], the herbicidal activity pre-emergence entry is reported as “very good herbicidal activity”. Besides, in experiment [2], the herbicidal activity post-emergence entry is recorded as “very good herbicidal activity”.
Take `CC(F)c1nc(N)nc(OC2CCN(c3cccc(Cl)c3)C2=O)n1` (centres unmarked) [Example A43]: the herbicidal activity pre-emergence entry in experiment [1] was “very good herbicidal activity”. Also, the herbicidal activity post-emergence entry in experiment [2] is on record as “very good herbicidal activity”.
Take `COc1cccc(N2CCC(Oc3nc(N)nc(C(C)F)n3)C2=O)c1` (centres unmarked) [Example A41]: in experiment [1], the herbicidal activity pre-emergence result is listed as “very good herbicidal activity”. Besides, in experiment [2], the herbicidal activity post-emergence entry is recorded as “very good herbicidal activity”.
`Cc1cccc(N2CCC(Nc3nc(C)nc(N)n3)C2=O)c1` (centres unmarked) [Example A4]: the herbicidal activity pre-emergence result in experiment [1] is on record as “very good herbicidal activity”. The herbicidal activity post-emergence result in experiment [2] is on record as “very good herbicidal activity”.
